Where “and” joins values, the source holds several entries; their conditions need not be identical. Equal entries are not always repeated.
Tests used:
[1] = biological target: T1, delF508-CFTR (Homo sapiens, UniProt P13569, DEL508-508); assay: iodide efflux, targeting (retargeting) of delF508-CFTR in CF15 cells; assay type: cell-based; conditions: for effect of known CFTR inhibitors on delF508 transport after treatment with aloisine A: CF15 cells treated with aloisine A
T1 construct: endogenous in cells; host or cells: CF15 (homozygous delF508)
Method: (§1) CF15 cells: CF15 cells are human epithelial cells of nasal origin which express the Δ508-CFTR gene.
Next, the quantity of radiotracer which leaves the cell is counted after the addition of various pharmacological agents.
The cells are cultured on 24-well plates in a suitable medium. […] The iodide equilibrates on either side of the cell membrane. A robot (MultiPROBE, Packard) carries out the following steps: the loading medium is rinsed with efflux medium in order to remove the extracellular radioactivity. The supernatant is collected every minute in hemolysis tubes and the medium is replaced with an equivalent volume (500 μl). The samples collected for the first 3 minutes are not supplemented with drug, they make it possible to obtain a stable baseline, characterizing the passive outflow of the I ions. The next 7 samples are obtained in the presence of the molecule to be tested. At the end of the experiment, the cells are lyzed by adding 500 μl of NaOH (0.1 N)/0.1% SDS (30 min), thus, the radioactivity which remained inside the cell may be determined. The radioactivity present in the hemolysis tubes is counted as counts per minute (cpm) using a gamma counter (Cobra II, Packard). The results in cpm are expressed in the form of rate of radioactive iodide outflow (R) according to the following formula: […]
This iodide flow is represented in the form of a curve. In order to quantify the outflow of iodide due to the administration of the molecule tested, the following relative flow is calculated which makes it possible to dispense with the basic flow: relative rate (min^−1)=Rpeak−Rbasal. […] The results are presented in the form of a mean+/−SEM. The student's statistical test is used to compare the effect of the drugs to the controls (the values corresponding to P<0.01 are considered as statistically significant).
The study of the targeting of the delF508-CFTR protein was carried out by combining pharmacological and cell imaging approaches, and biochemical and electrophysiological tests on […] human epithelial cells CF15 homozygous for the delF508 deletion.
For each experiment, the addition of a cocktail (10 μM forskolin+30 μM genistein) allows the activation of CFTR when it is attached to the membrane. Thus, an iodide efflux can be observed if the targeting of delF508 has been restored.

[2] = biological target: T2, wild-type CFTR (CFTR-WT) (Homo sapiens, UniProt P13569); assay: iodide efflux, activation of the CFTR chloride channel in CHO cells; assay type: cell-based
T2 construct: expressed in transfected cells; host or cells: CHO (Chinese Hamster Ovary) cells
Method: CHO-WT cells: The CHO (Chinese Hamster Ovary) cells are fibroblasts which have been transfected with the wild-type CFTR (CFTR-WT) gene. These cells will therefore overexpress the CFTR protein.
the measurements of chloride ion transport in the cells was carried out with the aid of the radioactive iodide efflux technique (Becq et al., 1999; Dormer et al., 2001). The tracer (^125I) is incorporated into the intracellular medium. Next, the quantity of radiotracer which leaves the cell is counted after the addition of various pharmacological agents. […]
(§2) The cells are cultured on 24-well plates in a suitable medium. 2 rinses with efflux medium (NaCl: 136.6 mM, KCl: 5.4 mM, KH2PO4: 0.3 mM, NaH2PO4: 0.3 mM, NaHCO3: 4.2 mM, CaCl2: 1.3 mM, MgCl2: 0.5 mm, MgSO4: 0.4 mM, HEPES: 10 mM, D-glucose: 5.6 mM) are carried out in order to remove the dead cells which release the radioactivity anarchically. […] A robot (MultiPROBE, Packard) carries out the following steps: the loading medium is rinsed with efflux medium in order to remove the extracellular radioactivity. […] At the end of the experiment, the cells are lyzed by adding 500 μl of NaOH (0.1 N)/0.1% SDS (30 min), thus, the radioactivity which remained inside the cell may be determined. The radioactivity present in the hemolysis tubes is counted as counts per minute (cpm) using a gamma counter (Cobra II, Packard). […]

[3] = biological target: T3, G551D-CFTR (Homo sapiens, UniProt P13569, G551D); assay: iodide efflux, activation of G551D-CFTR in CHO cells; assay type: cell-based; conditions: CHO cell
T3 construct: expressed in transfected cells; host or cells: CHO cells
Method: (§3) the measurements of chloride ion transport in the cells was carried out with the aid of the radioactive iodide efflux technique (Becq et al., 1999; Dormer et al., 2001). The tracer (^125I) is incorporated into the intracellular medium. Next, the quantity of radiotracer which leaves the cell is counted after the addition of various pharmacological agents. Iodide is used as a tracer for the transport of chloride ions. ^125I further has the advantage of having a short life compared with that of other markers such as ^35Cl (respective ½ life: […] and 300000 years).
as §2

[4] = biological target: T1, delF508-CFTR; assay: iodide efflux, activation of delF508 in CF15 cells after incubation at 27° C.; assay type: cell-based
Method: as §1, §3
as §2, with “determined.” for “determined. The radioactivity present in the hemolysis tubes is counted as counts per minute (cpm) using a gamma counter (Cobra II, Packard).”

[5] = biological target: T1, delF508-CFTR; assay: immunolocalization of delF508-CFTR in CF15 cells (confocal imaging); assay type: cell-based; conditions: 100 μM aloisine A
Method: Immunolabeling makes it possible to reveal the cellular location of the CFTR protein using a primary anti-CFTR antibody (Ab), and then a secondary antibody anti-primary antibody labeled with the fluorophore Cy3.
The cells are inoculated beforehand on cover glass in appropriate culture medium. 3 washes with TBS (NaCl: 157 mM, Tris base: […], pH 7.4) of 5 min each are performed. The cells are then fixed by addition of TBS-paraformaldehyde (3%) for 20 min. After 3 washes with TBS (5 min), the cells are incubated with TBS-triton 0.1% (10 min) which allows the formation of holes in the cell membrane and then 3 washes with TBS are again carried out before bringing the cells into contact with TBS-BSA 0.5%-saponin 0.05% for 1 h. The cells are then incubated with the anti-C-terminal CFTR primary antibody (2 μg/ml) for 1 h. 3 washes with TBS-BSA-saponin of 5 min each are carried out before the incubation with the secondary antibody GAM-cy3 (1/400) for 1 h. Following 2 washes with TBS of 5 min, the nuclei are labeled by incubating with Topro3 (1/1000) for 5 min. Next, the cover glass may be mounted on the slide after 3 final washes with TBS of 5 min. […] In order to distinguish between the Cy3 and Topro3 labeling, the fluorescence color of Topro3 was changed to blue (color of the nuclei).

[6] = test system: CHO-WT cells; assay: MTT cytotoxicity test; assay type: cell-based, Chinese Hamster; conditions: various concentrations
Method: The test of toxicity to MTT is a […] test which is based on capacity of mitochondrial dehydrogenases to metabolize MTT (yellow tetrazolium salt) to formazan (purple). The absorbance, which is proportional to the concentration of dye converted, can then be measured by spectrophotometry. […] 3 controls are prepared: 100% living cells: cells without agent; 0% living cells: cells left in the open air; blank: medium without cells. […] Next, they are incubated for 4 h with 100 μl of RPMI solution supplemented with MTT (0.5 mg/ml). The medium is then removed, the addition of 100 μl of DMSO makes it possible to solubilize the dye converted (formazan). The absorbance is measured by spectrophotometry at 570 nm (purple); 630 nm (background). In order to eliminate the background, the following calculation is carried out: DOreal=DO570nm−DO630nm. Next, the results are normalized with respect to the controls (100% and 0% of living cells) and are presented in the form of mean+/−SEM.

[7] = in vivo

T1 sequence (P13569 with tags, fused parts or gaps DEL508-508): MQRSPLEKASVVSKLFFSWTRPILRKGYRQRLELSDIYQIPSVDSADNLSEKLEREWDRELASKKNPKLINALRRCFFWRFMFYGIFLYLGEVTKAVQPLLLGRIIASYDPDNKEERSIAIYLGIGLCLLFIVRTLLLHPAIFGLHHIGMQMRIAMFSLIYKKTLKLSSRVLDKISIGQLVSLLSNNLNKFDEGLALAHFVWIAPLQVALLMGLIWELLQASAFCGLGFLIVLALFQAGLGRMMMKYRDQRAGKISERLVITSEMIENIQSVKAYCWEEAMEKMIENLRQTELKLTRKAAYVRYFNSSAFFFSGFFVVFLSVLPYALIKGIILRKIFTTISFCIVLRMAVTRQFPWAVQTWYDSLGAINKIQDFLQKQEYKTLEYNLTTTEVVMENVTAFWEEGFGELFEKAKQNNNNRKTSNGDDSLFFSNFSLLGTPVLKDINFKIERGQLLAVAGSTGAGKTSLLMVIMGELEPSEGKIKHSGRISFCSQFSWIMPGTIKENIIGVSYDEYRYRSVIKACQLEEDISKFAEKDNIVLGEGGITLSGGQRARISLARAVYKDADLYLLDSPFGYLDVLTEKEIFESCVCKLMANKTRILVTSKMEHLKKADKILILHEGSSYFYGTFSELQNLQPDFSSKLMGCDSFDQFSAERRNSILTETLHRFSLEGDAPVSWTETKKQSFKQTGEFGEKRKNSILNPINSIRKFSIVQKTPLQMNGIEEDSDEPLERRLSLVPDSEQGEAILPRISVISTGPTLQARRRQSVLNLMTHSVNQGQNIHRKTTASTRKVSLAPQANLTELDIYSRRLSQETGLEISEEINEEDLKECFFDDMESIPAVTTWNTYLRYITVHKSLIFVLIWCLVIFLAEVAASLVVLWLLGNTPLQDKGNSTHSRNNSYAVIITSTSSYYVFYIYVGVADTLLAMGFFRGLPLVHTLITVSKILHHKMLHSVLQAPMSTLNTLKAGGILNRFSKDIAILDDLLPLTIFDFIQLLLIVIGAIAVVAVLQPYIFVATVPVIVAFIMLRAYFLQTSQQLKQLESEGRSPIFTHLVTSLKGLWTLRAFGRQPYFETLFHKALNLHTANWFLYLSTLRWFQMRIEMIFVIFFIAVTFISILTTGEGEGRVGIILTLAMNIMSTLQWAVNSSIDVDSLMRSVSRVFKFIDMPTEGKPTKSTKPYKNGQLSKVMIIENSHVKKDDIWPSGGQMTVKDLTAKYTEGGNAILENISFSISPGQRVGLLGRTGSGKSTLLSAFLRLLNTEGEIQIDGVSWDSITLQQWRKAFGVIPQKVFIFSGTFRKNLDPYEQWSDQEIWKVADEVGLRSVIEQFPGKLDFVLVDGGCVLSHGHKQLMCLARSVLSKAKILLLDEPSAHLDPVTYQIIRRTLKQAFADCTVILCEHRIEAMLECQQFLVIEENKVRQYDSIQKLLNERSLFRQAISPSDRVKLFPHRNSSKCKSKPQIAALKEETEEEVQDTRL
T3 sequence (P13569 whole entry G551D): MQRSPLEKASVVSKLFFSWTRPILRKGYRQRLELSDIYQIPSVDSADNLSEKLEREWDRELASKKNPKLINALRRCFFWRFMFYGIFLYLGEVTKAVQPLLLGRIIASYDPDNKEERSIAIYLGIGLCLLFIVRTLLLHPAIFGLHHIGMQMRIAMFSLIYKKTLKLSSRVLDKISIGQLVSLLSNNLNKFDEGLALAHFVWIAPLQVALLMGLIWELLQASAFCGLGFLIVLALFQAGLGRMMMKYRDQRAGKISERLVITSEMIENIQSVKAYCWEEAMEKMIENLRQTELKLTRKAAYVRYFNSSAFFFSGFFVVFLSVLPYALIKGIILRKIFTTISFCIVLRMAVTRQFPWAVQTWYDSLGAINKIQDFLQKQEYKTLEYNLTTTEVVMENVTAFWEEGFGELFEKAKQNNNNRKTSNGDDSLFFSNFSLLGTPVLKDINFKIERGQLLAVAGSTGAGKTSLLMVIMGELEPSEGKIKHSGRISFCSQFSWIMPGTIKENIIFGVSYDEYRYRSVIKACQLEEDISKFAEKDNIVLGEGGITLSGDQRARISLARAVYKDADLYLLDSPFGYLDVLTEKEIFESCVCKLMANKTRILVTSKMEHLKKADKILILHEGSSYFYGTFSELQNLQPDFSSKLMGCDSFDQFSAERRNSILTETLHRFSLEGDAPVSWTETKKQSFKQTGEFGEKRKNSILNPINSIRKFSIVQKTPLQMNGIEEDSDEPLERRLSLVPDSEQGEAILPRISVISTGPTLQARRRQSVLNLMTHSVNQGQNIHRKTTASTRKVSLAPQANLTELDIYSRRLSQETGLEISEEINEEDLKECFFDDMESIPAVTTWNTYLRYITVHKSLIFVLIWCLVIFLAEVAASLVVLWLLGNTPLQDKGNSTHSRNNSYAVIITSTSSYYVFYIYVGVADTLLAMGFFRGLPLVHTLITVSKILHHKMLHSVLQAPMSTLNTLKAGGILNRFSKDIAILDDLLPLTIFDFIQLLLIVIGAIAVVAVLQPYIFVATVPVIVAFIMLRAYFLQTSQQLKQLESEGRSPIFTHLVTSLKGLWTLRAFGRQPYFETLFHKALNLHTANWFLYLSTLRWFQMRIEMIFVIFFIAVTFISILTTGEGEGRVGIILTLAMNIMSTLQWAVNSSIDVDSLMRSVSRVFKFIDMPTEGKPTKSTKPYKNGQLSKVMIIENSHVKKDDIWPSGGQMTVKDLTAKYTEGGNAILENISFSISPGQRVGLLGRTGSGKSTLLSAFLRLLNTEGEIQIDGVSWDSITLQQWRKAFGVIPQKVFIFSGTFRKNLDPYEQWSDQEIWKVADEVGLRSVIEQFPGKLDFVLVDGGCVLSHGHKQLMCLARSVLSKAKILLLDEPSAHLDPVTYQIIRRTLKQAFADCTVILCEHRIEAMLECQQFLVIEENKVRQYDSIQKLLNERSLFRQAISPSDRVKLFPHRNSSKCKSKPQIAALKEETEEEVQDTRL
T2 sequence (P13569 whole entry): as the sequence (P13569 whole entry G551D) above, with D551G counted along it

Question: Which “competition with aloisine A: effect on the aloisine A-induced retargeting of delF508-CFTR” value ([1]; iodide efflux, CF15 cells) does the source give for C[C@H]1CCC/C=C/[C@@H]2C[C@H](O)C[C@H]2[C@H](O)/C=C/C(=O)O1 [Brefeldin A] here?
Answer: The value was “inhibition”.

Question: Which “effect of known CFTR inhibitors on delF508 transport after treatment with aloisine A” value (shortened to “effect of known CFTR inhibitors”) [1] does the source give for O=S(=O)(O)c1cc(N=C=S)ccc1C=Cc1ccc(N=C=S)cc1S(=O)(=O)O [DIDS] here?
Answer: Its value is “insensitive”.

Question: Which “effect of known CFTR inhibitors” value [1] does the source give for O=C(O)c1ccccc1Nc1ccccc1 [DPC] here?
Answer: The value was “blocked”.

Question: Which EC50 [2] does the source give for CCCCc1c(-c2ccc(O)cc2)[nH]c2nccnc12 [aloisine A] here?
Answer: The EC50 was 152 nM.

Question: What about the EC50 [3] of the same compound?
Answer: Its EC50 is 1.5 nM.

Question: What about the EC50 [4] of the same compound?
Answer: Its EC50 is 110 nM.

Question: What about the “delF508-CFTR activity after treatment” value ([1]; CF15 cells, 100 μM, 2 h treatment, 37° C.) of the same compound?
Answer: Its value is “restored”.

Question: What about the EC50 ([1]; CF15 cells, 2 h treatment, then 10 μM forskolin+30 μM genistein, read-out: EC50 of retargeting of delF508-CFTR (restored iodide efflux)) of the same compound?
Answer: The EC50 was 50000 nM and 49000 nM.

Question: What about the “localization of the delF508 protein” value [5] of the same compound?
Answer: The value was “redirect the delF508 protein to the membrane”.

Question: And the “cell viability (MTT)” value ([6]; 2 h incubation)?
Answer: The value was “viable for all the concentrations”.

Question: What about the “cell viability (MTT)” value ([6]; 24 h incubation) of the same compound?
Answer: Its value is “viable for all the concentrations”.

Question: And the toxicity on animals [7]?
Answer: Its toxicity on animals is “very low toxicity”.

Question: Which “effect of known CFTR inhibitors” value [1] does the source give for COc1ccc(Cl)cc1C(=O)NCCc1ccc(S(=O)(=O)NC(=O)NC2CCCCC2)cc1 [glibenclamide] here?
Answer: Its value is “blocked”.

Source: US20090048260A1, “Use of pyrrolopyrazine derivatives for the production of medicaments for the treatment of mucoviscidosis and diseases related to protein addressing errors in cells” (priority 2004, published 2009)
